Experimental data published in patent US20240199639A1, “PRETOMANID AMORPHOUS FORM” (THE GLOBAL ALLIANCE FOR TB DRUG DEVELOPMENT, INC., priority 2021, published 2024).
Values after ≈ are worked out from the molar mass of the structure shown. Like-named read-outs stand apart in the source and are kept apart here.

Columns and labels:
[1] = Kinetic solubility of nano suspension after lyophilization in FaSSIF at 37° C.; assay type: physicochemical; conditions: thermodynamic from solid, Table 20, FaSSIF
Protocol: 10 mL of FaSSIF was added into 2 vials containing 2 batches of nano suspension after Lyophilization (equivalent to 2 mg API), then the suspensions were shaken using a thermomixer at 37° C. and 100 rpm, 300 μL of suspensions were withdrawn at 15, 30, 45, 60, 90, 120 and 180 mins. The samples of suspensions were centrifuged at 14000 rpm for 10 min. The supernatants were diluted with the diluent (ACN/water, 50/50) and analyzed by UPLC.

cytochrome P450 = conditions: cited from earlier work
[2] = tested on: Gram-positive and Gram-negative bacteria; conditions: cited from earlier work
[3] = Equilibrium solubility of PA-824 in FaSSIF containing 2% DMSO; assay type: physicochemical; conditions: thermodynamic from solid, 25° C.
[4] = Induction time of crystallization of PA-824 in presence of HPMCAS; assay type: physicochemical
[5] = Kinetic solubility of Soluplus ASDs with different drug loadings in FaSSIF at 37° C.; assay type: physicochemical; conditions: thermodynamic from solid, Table 8, FaSSIF
Protocol: (§1) 10 mL of FaSSIF was added into 3 vials containing each ASD (equivalent to 5 mg API) prepared by nanospray drying, respectively, then the suspensions were shaken using a thermomixer at 37° C. under 100 rpm, 300 μL of suspensions were withdrawn at 15, 30, 45, 60, 90, 120 and 180 mins. The samples of suspensions were centrifuged at 3000 rpm for 5 min. The supernatants were diluted with the diluent (ACN/water, 75/25) and analyzed by HPLC.

[6] = assay type: physicochemical
Protocol: 10 mL of SGF was added into 8 vials containing each ASD prepared by vacuum drying as described above, then the suspensions were shaken using a thermomixer at 37° C. under 100 rpm, 300 μL of suspensions were withdrawn at 1 h and the pH values were recorded. After that, 10 mL of FaSSIF was added into the suspensions containing SGF, 300 μL of suspensions were withdrawn at 1 h and 3 h, the pH values in 3 h were also recorded. The samples of suspensions were centrifuged in 96-well plates at 3000 rpm for 2 min. The supernatants were diluted with the diluent (ACN/water, 50/50) and analyzed by HPLC. […]

[7] = Kinetic solubility of nanospray-dried ASDs in FaSSIF at 37° C.; assay type: physicochemical; conditions: thermodynamic from solid
Protocol: as §1, with “of FASSIF” for “of FaSSIF”, “into 8” for “into 3”, “ASD” for “ASD (equivalent to 5 mg API)”, “prepared before” for “prepared”, “centrifuged in 96-well plates” for “centrifuged”, “(ACN/water, 50/50)” for “(ACN/water, 75/25)”

[8] = Kinetic solubility of HME ASDs in FaSSIF at 37° C.; assay type: physicochemical; conditions: thermodynamic from solid; for solubility at 15 min: read-out: Solubility (μg/mL) 15 min; for solubility at 30 min: read-out: Solubility (μg/mL) 30 min; for solubility at 60 min: read-out: Solubility (μg/mL) 60 min; for solubility at 90 min: read-out: Solubility (μg/mL) 90 min; for solubility at 120 min: read-out: Solubility (μg/mL) 120 min; for solubility at 180 min: read-out: Solubility (μg/mL) 180 min
Protocol: 10 mL of FaSSIF was added into 4 vials containing each ASD (equivalent to 5mg API) prepared by Hot melt extrusion, respectively, then the suspensions were shaken using a thermomixer at 37° C. under 100 rpm, 300 μL of suspensions were withdrawn at 15, 30, 45, 60, 90, 120 and 180 mins. The samples of suspensions were centrifuged at 14000 rpm for 10 min. The supernatants were diluted with the diluent (ACN/water, 50/50) and analyzed by UPLC.
The milled ASD products were sieved with 60 mesh sieve, and kinetic solubility test was performed with sieved ASD products as well (Table 14).

[9] = Supersaturated solubility measurement in FaSSIF with 2% DMSO; assay type: physicochemical; conditions: for solubility kinetic at 16 min: read-out: Measured conc.(μg/mL)
Protocol: Then 20 μL of each DMSO stock solution was added to FaSSIF at 1:49 to make the final DMSO concentration at 2% v/v. The samples were stirred at room temperature for 16 min, centrifuged and supernatants analyzed by HPLC.

[10] = Amorphous solubility of PA-824; assay type: physicochemical
[11] = 15 min, read-out: Solubility (μg/mL) 15 min
[12] = 30 min, read-out: Solubility (μg/mL) 30 min
[13] = 45 min, read-out: Solubility (μg/mL) 45 min
[14] = 60 min, read-out: Solubility (μg/mL) 60 min
[15] = 90 min, read-out: Solubility (μg/mL) 90 min
[16] = 180 min, read-out: Solubility (μg/mL) 180 min

Question: With `O=[N+]([O-])c1cn2c(n1)OC[C@@H](OCc1ccc(OC(F)(F)F)cc1)C2` [PA-824, (6S)-2-nitro-6-{[4-(trifluoromethoxy)benzyl]oxy}-6,7-dihydro-5H-imidazo[2,1-b][1,3]oxazine] as the compound, how does the solubility at 15 min [1, 11] read?
Answer: 31.7 µg/mL (≈ 88.3 µM)

Question: What about the solubility at 30 min [1, 12] of the same compound?
Answer: 31.2 µg/mL (≈ 86.9 µM)

Question: What about the solubility at 45 min [1, 13] of the same compound?
Answer: 32.8 µg/mL (≈ 91.2 µM)

Question: What about the solubility at 60 min [1, 14] of the same compound?
Answer: 33.5 µg/mL (≈ 93.3 µM)

Question: And the solubility at 90 min [1, 15]?
Answer: 32.6 µg/mL (≈ 90.9 µM)

Question: And the solubility at 120 min ([1]; 120 min, read-out: Solubility (μg/mL) 120 min)?
Answer: 39.6 µg/mL (≈ 110 µM)

Question: And the solubility at 180 min [1, 16]?
Answer: 31.6 µg/mL (≈ 87.8 µM)

Question: And the “cytochrome P450 interactions” value (cytochrome P450)?
Answer: no significant cytochrome P450 interactions

Question: What about the “activity against a broad range of Gram-positive and Gram-negative bacteria” value [2] of the same compound?
Answer: no significant activity

Question: And the solubility thermodynamic at 18 h [3]?
Answer: 51.4 µg/mL (≈ 143 µM)

Question: What about the “Induction Time” value ([4]; 160 ug/mL PA-824, FaSSIF V1) of the same compound?
Answer: 0.89 ± 0.26 min

Question: What about the “Induction Time” value ([4]; 160 ug/mL PA-824, FaSSIF V1 + HF (1 mg/mL)) of the same compound?
Answer: 77.6 ± 13.6 min

Question: What about the “Induction Time” value ([4]; 160 ug/mL PA-824, PBS pH 6.5) of the same compound?
Answer: 1.39 ± 0.18 min

Question: And the “Induction Time” value ([4]; 160 ug/mL PA-824, PBS pH 6.5 + HF (1 mg/mL))?
Answer: 43.75 ± 1.34 min

Question: What about the Induction Time ([4]; PA-824 80 μg/mL, PBS pH 6.5, HPMCAS-HF 10 μg/mL) of the same compound?
Answer: about 77.5 minutes

Question: What about the solubility at 15 min [5, 11] of the same compound?
Answer: 22.1 µg/mL (≈ 61.7 µM)

Question: And the solubility at 30 min [5, 12]?
Answer: 23.7 µg/mL (≈ 65.9 µM)

Question: And the solubility at 45 min [5, 13]?
Answer: 26.1 µg/mL (≈ 72.5 µM)

Question: What about the solubility at 60 min [5, 14] of the same compound?
Answer: 26.3 µg/mL (≈ 73.3 µM)

Question: What about the solubility at 90 min [5, 15] of the same compound?
Answer: 23.6 µg/mL (≈ 65.8 µM)

Question: What about the solubility at 180 min [5, 16] of the same compound?
Answer: 24.4 µg/mL (≈ 68 µM)

Question: And the “FaSSIF Conc. (μg/mL) (1 hr)” value ([6]; 1 h)?
Answer: 23.95 µg/mL

Question: And the “SGF Conc. (μg/mL) (1 hr)” value ([6]; 1 h)?
Answer: 12.46 µg/mL

Question: And the “FaSSIF Conc. (μg/mL) (3 hr)” value ([6]; 3 h)?
Answer: 24.89 µg/mL

Question: And the solubility at 15 min [7, 11]?
Answer: 22.1 µg/mL (≈ 61.7 µM)

Question: What about the solubility at 30 min [7, 12] of the same compound?
Answer: 23.7 µg/mL (≈ 65.9 µM)

Question: And the solubility at 45 min [7, 13]?
Answer: 26.1 µg/mL (≈ 72.5 µM)

Question: What about the solubility at 60 min [7, 14] of the same compound?
Answer: 26.3 µg/mL (≈ 73.3 µM)

Question: What about the solubility at 90 min [7, 15] of the same compound?
Answer: 23.6 µg/mL (≈ 65.8 µM)

Question: What about the solubility at 180 min [7, 16] of the same compound?
Answer: 24.4 µg/mL (≈ 68 µM)

Question: What about the solubility at 15 min ([8]; after sieving (60 mesh)) of the same compound?
Answer: 31.7 µg/mL (≈ 88.3 µM)

Question: And the solubility at 30 min ([8]; after sieving (60 mesh))?
Answer: 31.2 µg/mL (≈ 86.9 µM)

Question: And the solubility at 45 min ([8]; after sieving (60 mesh), 45 min, read-out: Solubility (μg/mL) 45 min)?
Answer: 32.8 µg/mL (≈ 91.2 µM)

Question: What about the solubility at 60 min ([8]; after sieving (60 mesh)) of the same compound?
Answer: 33.5 µg/mL (≈ 93.3 µM)

Question: And the solubility at 90 min ([8]; after sieving (60 mesh))?
Answer: 32.6 µg/mL (≈ 90.9 µM)

Question: And the solubility at 120 min ([8]; after sieving (60 mesh))?
Answer: 39.6 µg/mL (≈ 110 µM)

Question: And the solubility at 180 min ([8]; after sieving (60 mesh))?
Answer: 31.6 µg/mL (≈ 87.8 µM)

Question: And the solubility at 15 min ([8]; without sieving)?
Answer: 37.2 µg/mL (≈ 103 µM)

Question: And the solubility at 30 min ([8]; without sieving)?
Answer: 41.3 µg/mL (≈ 115 µM)

Question: What about the solubility at 60 min ([8]; without sieving) of the same compound?
Answer: 46.2 µg/mL (≈ 129 µM)

Question: And the solubility at 90 min ([8]; without sieving)?
Answer: 41.3 µg/mL (≈ 115 µM)

Question: What about the solubility at 120 min ([8]; without sieving) of the same compound?
Answer: 41.4 µg/mL (≈ 115 µM)

Question: And the solubility at 180 min ([8]; without sieving)?
Answer: 40.7 µg/mL (≈ 113 µM)

Question: And the solubility at 16 min ([9]; fassif, kinetic from dmso stock)?
Answer: 53.3 µg/mL (≈ 148 µM)

Question: What about the solubility kinetic at 16 min ([9]; fassif, kinetic from dmso stock, target conc. 205.60 μg/mL) of the same compound?
Answer: 30.8 µg/mL (≈ 85.8 µM)

Question: And the solubility kinetic at 16 min ([9]; fassif, kinetic from dmso stock, target conc. 514.00 μg/mL)?
Answer: 29.5 µg/mL (≈ 82.1 µM)

Question: And the solubility kinetic at 16 min ([9]; fassif, kinetic from dmso stock, target conc. 616.80 μg/mL)?
Answer: 28.7 µg/mL (≈ 79.9 µM)

Question: And the solubility kinetic at 16 min ([9]; fassif, kinetic from dmso stock, target conc. 771.00 μg/mL)?
Answer: 30.3 µg/mL (≈ 84.4 µM)

Question: And the “Measured conc.(μg/mL)” value ([9]; target conc. 51.40 μg/mL)?
Answer: 53.08 µg/mL

Question: What about the “Measured conc.(μg/mL)” value ([9]; target conc. 102.80 μg/mL) of the same compound?
Answer: 53.27 µg/mL

Question: What about the “Measured conc.(μg/mL)” value ([9]; target conc. 411.20 μg/mL) of the same compound?
Answer: 32.98 µg/mL

Question: And the “Measured conc.(μg/mL)” value ([9]; target conc. 1028.00 μg/mL)?
Answer: 30.32 µg/mL

Question: And the solubility ([10]; aqueous buffer, in PBS)?
Answer: ~160 µg/mL (≈ 445 µM)

Question: And the solubility ([10]; in FaSSIF V1)?
Answer: ~300 µg/mL (≈ 835 µM)
